Laboratory results from the CheMixHub viscosity set.

Assay: xn = mol fraction of the nth substance listed

Cc1ccccc1C + c1ccccc1
viscosity [mPa·s]
Details | 293.15 K | 303.15 K | 308.15 K | 313.15 K | 318.15 K | 323.15 K
101 kPa, x2 = 0.1 | – | 0.657 | 0.622 | 0.594 | 0.572 | –
101 kPa, x2 = 0.2 | – | 0.665 | 0.631 | 0.597 | 0.573 | –
101 kPa, x2 = 0.4 | – | 0.69 | 0.668 | 0.599 | 0.574 | –
101 kPa, x2 = 0.6 | – | 0.652 | 0.623 | 0.592 | 0.55 | –
101 kPa, x2 = 0.802 | – | 0.645 | 0.61 | 0.577 | 0.552 | –
101 kPa, x2 = 0.902 | – | 0.67 | 0.641 | 0.623 | 0.587 | –
101.33 kPa, x2 = 0.1 | – | 0.657 | 0.622 | 0.594 | 0.572 | –
101.33 kPa, x2 = 0.2 | – | 0.665 | 0.631 | 0.597 | 0.573 | –
101.33 kPa, x2 = 0.2114 | 0.749 | 0.657 | – | 0.583 | – | 0.519
101.33 kPa, x2 = 0.4 | – | 0.69 | 0.668 | 0.599 | 0.574 | –
101.33 kPa, x2 = 0.4129 | 0.71 | 0.625 | – | 0.554 | – | 0.493
101.33 kPa, x2 = 0.5938 | 0.685 | 0.601 | – | 0.531 | – | 0.474
101.33 kPa, x2 = 0.6 | – | 0.652 | 0.623 | 0.592 | 0.55 | –
101.33 kPa, x2 = 0.7195 | 0.669 | 0.585 | – | 0.517 | – | 0.461
101.33 kPa, x2 = 0.802 | – | 0.645 | 0.61 | 0.577 | 0.552 | –
101.33 kPa, x2 = 0.8514 | 0.658 | 0.575 | – | 0.506 | – | 0.45
101.33 kPa, x2 = 0.902 | – | 0.67 | 0.641 | 0.623 | 0.587 | –

c1cc[nH]c1 + c1ccccc1
viscosity [mPa·s], 101 kPa
Details | x1 = 0.05439 | x1 = 0.06772 | x1 = 0.1099
303.15 K | 0.576 | 0.579 | 0.59
323.15 K | 0.445 | 0.452 | 0.459

NC(N)=O + c1ccncc1
Details | viscosity [mPa·s]
298.15 K, 101 kPa, x1 = 0.012 | 0.939
